In brackets after ≈: the same amount, converted by molar mass. Positions of bridges follow the written chain, without caps; N, C: chain ends. Non-standard residues stand in square brackets, D forms with d. Residues, ends and D or L forms follow the SMILES beside them. *: point of attachment. Ileψ(thiazoline)Cys = CC[C@H](C)[C@H](N)C1=N[C@H](C(=O)*)CS1; dOrn = NCCC[C@@H](N)C(=O)O
What was measured:
[1] = system: L. monocytogenes Δlmo0919; experiment: Minimal inhibitory concentration (MIC) determination in broth; assay type: cell-based, Listeria monocytogenes; details: for MIC: Listeria monocytogenes, 48 h
Description: For mutant generation with pMAD-based plasmids^59, ˜600 nt regions of complementarity both upstream and downstream of a targeted region were either ordered as gBlocks (IDT) and amplified with gBlock-Up and Down oligonucleotides (Table 1) complimentary to uniform flanks on each gBlock corresponding to the 40 nts on either side of the pMAD multi-cloning site, or PCR amplified with Phusion High fidelity polymerase and reagents (Finnzymes, F-553) using genomic DNA as a template and then joined by a second splice overlap extension PCR reaction using the first two PCR products as template to generate a Upstream-Downstream (UD) PCR product (Table 1, lmo0919 deletion). PCR products were subsequently purified with QIAquick PCR purification columns (Qiagen, 28104), digested with the SalI and XmaI restriction enzymes (NEB), purified again as before, and ligated into SalI/XmaI digested pMAD plasmid for 1 hr at 25° C. with T4 DNA ligase (NEB, M0202S). 2 μl of each ligation were transformed into chemically competent E. coli Top10 (Invitrogen, C404003) cells according to the manufacturer's instructions. Transformants were screened by PCR and Sanger sequencing for the presence of the appropriate insert. Electrocompetent L. monocytogenes strains were transformed with the respective plasmid and mutagenesis carried out as described previously^59. Briefly, after transformation and plating onto selective BHI, 5 ug/ml erythromycin (Em) 80 ug/ml 5-bromo-4-chloro-3-indolyl-β-D-galactopyranoside (X-gal) plates, bacteria were grown at 30° C. for two days. A single blue colony was picked and transferred to liquid BHI broth and grown for an additional 6 hrs at 30° C. The colony was then diluted 1:1000 into 10 ml of BHI-Em and grown O.N. at 42° C., which prevents pMAD replication in the cytosol owing to a temperature sensitive ori. […]
The MIC was determined in broth culturing conditions in the presence of serially diluted antibiotic concentrations. […]

L. monocytogenes = experiment: Sublethal antibiotic concentration determination (growth-rate monitoring); assay type: cell-based, Listeria monocytogenes EGDe; details: for Sublethal concentration (highest antibiotics concentration that did not cause growth-rate inhibition): Table 2; for Sublethal concentrations of antibiotics used in this study: Table 6
Method: (§1) A sublethal concentration for the antibiotics lincomycin, erythromycin, chloramphenicol, kanamycin, ofloxacin, ampicilin and bacitracin (Sigma) was determined for each of the organisms used in this study as follows. Bacterial cultures were propagated in LB or BHI O.N. in triplicates and diluted 1:200 into fresh media. Cultures were grown to early exponential phase (OD600=0.1-0.2) and then supplemented with serially diluted antibiotics stocks. The growth rate was dynamically monitored in intervals of 10-15 min using a 96 well plate format OD reader (Infinite M200 Tecan) for a period of at least 4 hours. […] To identify antibiotic-responsive regulators, bacteria were grown in LB or BHI in triplicates as described above and, upon reaching early exponential phase, 5 ml cultures were independently exposed for 15 minutes to the sublethal concentration of each antibiotic as determined above. Bacteria were then collected by centrifugation, flash frozen and stored in −80° C. until RNA extraction.

[2] = system: lmo1652 regulatory element (rli59); experiment: Antibiotic-dependent transcriptional readthrough by term-seq and RNA-seq; assay type: cell-based, L. monocytogenes
Method: as §1
(§2) Term-seq average coverage across triplicates was calculated for the premature termination site and the full length gene termination site with a span of 10 nt surrounding each terminator, and the fraction of full length (gene) terminations out of all termination events was used to as a measure of the transcriptional readthrough (FIG. 3A). In cases where the regulator controlled the transcription of a multi-gene operon, which contained internal TSSs in addition to the primary one, RNA-seq was used to determine readthrough in the first gene (FIGS. 4C and 4F). RNA-seq coverage was used to measure the median read coverage over either the regulatory element or the gene, and the ratio between the two (gene-coverage divided by regulator-coverage) was used as an estimate for the short/long transcript ratio generated by regulator activity (FIG. 3A).

L. monocytogenes Wt = experiment: Minimal inhibitory concentration (MIC) determination in broth; assay type: cell-based; details: Listeria monocytogenes, 48 h, BHI, two days at 37° C.
Method: (§3) The MIC was determined in broth culturing conditions in the presence of serially diluted antibiotic concentrations. Briefly, the bacterial strains were grown O.N. at 37° C. in BHI agarose plates and 1-3 single colonies were collected into 1 ml of BHI broth. The OD600 was adjusted to 0.01 and then diluted 1:10 into a 96-well plate containing a final volume of 200 μl BHI supplemented with two-fold serial dilutions of lincomycin, erythromycin and chloramphenicol.

E. faecalis = experiment: Sublethal antibiotic concentration determination (growth-rate monitoring); assay type: cell-based, Enterococcus faecalis ATCC 29212; details: for Sublethal concentration (highest antibiotics concentration that did not cause growth-rate inhibition): Table 2; for Sublethal concentrations of antibiotics used in this study: Table 6
Method: as §1

[3] = system: L. monocytogenes ΔAnti-anti-terminator; experiment: Minimal inhibitory concentration (MIC) determination in broth; assay type: cell-based; details: Listeria monocytogenes, 48 h
Description: (§4) For mutant generation with pMAD-based plasmids^59, ˜600 nt regions of complementarity both upstream and downstream of a targeted region were either ordered as gBlocks (IDT) and amplified with gBlock-Up and Down oligonucleotides (Table 1) complimentary to uniform flanks on each gBlock corresponding to the 40 nts on either side of the pMAD multi-cloning site, or PCR amplified with Phusion High fidelity polymerase and reagents (Finnzymes, F-553) using genomic DNA as a template and then joined by a second splice overlap extension PCR reaction using the first two PCR products as template to generate a Upstream-Downstream (UD) PCR product (Table 1, lmo0919 deletion). PCR products were subsequently purified with QIAquick PCR purification columns (Qiagen, 28104), digested with the SalI and XmaI restriction enzymes (NEB), purified again as before, and ligated into SalI/XmaI digested pMAD plasmid for 1 hr at 25° C. with T4 DNA ligase (NEB, M0202S). 2 μl of each ligation were transformed into chemically competent E. coli Top10 (Invitrogen, C404003) cells according to the manufacturer's instructions. Transformants were screened by PCR and Sanger sequencing for the presence of the appropriate insert. Electrocompetent L. monocytogenes strains were transformed with the respective plasmid and mutagenesis carried out as described previously^59. Briefly, after transformation and plating onto selective BHI, 5 ug/ml erythromycin (Em) 80 ug/ml 5-bromo-4-chloro-3-indolyl-β-D-galactopyranoside (X-gal) plates, bacteria were grown at 30° C. for two days. A single blue colony was picked and transferred to liquid BHI broth and grown for an additional 6 hrs at 30° C. The colony was then diluted 1:1000 into 10 ml of BHI-Em and grown O.N. at 42° C., which prevents pMAD replication in the cytosol owing to a temperature sensitive ori. Serial dilutions were plated onto BHI-X-gal-Em plates and grown for two days at 42° C., and the process was reiterated several times until white colonies, in which the plasmid integrated into the genome, were recovered. Colonies were screened by colony PCR, and mutants were confirmed by Sanger sequencing.
as §3

[4] = system: L. monocytogenes uORF ATG > ACG; experiment: as above; assay type: cell-based; details: Listeria monocytogenes, 48 h
Description: as §4, §3

[5] = system: L. monocytogenes ΔAnti-terminator; experiment: as above; assay type: cell-based; details: Listeria monocytogenes, 48 h
Description: as §4, §3

[6] = system: msrC (EF1413) termination-based regulator; experiment: Antibiotic-dependent transcriptional readthrough by term-seq and RNA-seq; assay type: cell-based, E. faecalis; details: upon exposure to the antibiotic
Method: as §1
(§5) Term-seq average coverage across triplicates was calculated for the premature termination site and the full length gene termination site with a span of 10 nt surrounding each terminator, and the fraction of full length (gene) terminations out of all termination events was used to as a measure of the transcriptional readthrough (FIG. 3A). […]

B. subtilis = experiment: Sublethal antibiotic concentration determination (growth-rate monitoring); assay type: cell-based, Bacillus subtilis str. 168; details: for Sublethal concentration (highest antibiotics concentration that did not cause growth-rate inhibition): Table 2; for Sublethal concentrations of antibiotics used in this study: Table 6
Method: as §1

[7] = system: lmo0919 5′UTR regulator (rli53); experiment: Antibiotic-dependent transcriptional readthrough by term-seq and RNA-seq; assay type: cell-based, L. monocytogenes; details: 15 minutes exposure to sublethal concentration
Method: as §1, §2

[8] = system: 3aa uORF of the lmo0919 ribo-regulator homolog; experiment: Ribosome profiling (Ribo-seq) of ribosome occupancy over the lmo0919 ribo-regulator uORF; assay type: cell-based; details: L. innocua; brief exposure to lincomycin versus control
Method: (§6) FIG. 14 is a graph illustrating lincomycin-dependent ribosome stalling in the lmo0919 ribo-regulator.
(§7) To characterize the effects of lincomycin on the interaction between the ribo-regulator and the ribosome levels of ribosome occupancy over the ribo-regulator in control and lincomycin-treated bacteria were measured using ribosome profiling (Ribo-seq) (23, 42). Strikingly, an ˜5 fold increase in ribosome occupancy over the 3aa uORFs in both L. monocytogenes and L. innocua was measured following brief exposure to lincomycin (FIG. 14) (23).

[9] = system: 3aa uORF of the lmo0919 ribo-regulator; experiment: as above; assay type: cell-based; details: L. monocytogenes; brief exposure to lincomycin versus control
Method: as §6, §7

[10] = system: EF2720 regulatory element; experiment: Antibiotic-dependent transcriptional readthrough by term-seq and RNA-seq; assay type: cell-based, E. faecalis
Method: as §1, §5

lmo0919 regulator = experiment: Lincomycin-dependent induction of lmo0919 in ErmC-expressing strain; assay type: cell-based, L. monocytogenes expressing ErmC; details: ErmC-expressing bacteria, ribosomes resistant to lincomycin
Method: FIG. 11 illustrates that the lmo0919 regulator senses ribosome inhibition. L. monocytogenes carrying the ErmC antibiotic resistance gene was assayed for lincomycin dependent induction. In the L. monocytogenes ErmC-expressing strain, in which ribosome are made immune to lincomycin via methylation of A2058 in the 23S rRNA, the lmo0919 regulator is unresponsive to the presence of the antibiotic (red).
The structural alterations in the lmo0919 ribo-regulator could either be mediated by direct binding of the antibiotic to the ribo-regulator (i.e., a riboswitch), or by attenuation, where the lincomycin-inhibited ribosomes stall on a uORF in the ribo-regulator, thus shifting the ribo-regulator structure from a “closed” to an “open” state. To differentiate between direct binding and ribosome-mediated regulation, lincomycin-dependent induction of lmo0919 in L. monocytogenes expressing the ErmC 23S rRNA methyltransferase was measured. In these bacteria the ribosomes are di-methylated at position A2058 of the 23S rRNA, rendering the ribosomes resistant to lincomycin.

Row | SMILES | MIC [1] [µg/mL] | Sublethal concentration (highest antibiotics concentration that did not cause growth-rate inhibition) (L. monocytogenes) [µg/mL] | Sublethal concentrations of antibiotics used in this study (L. monocytogenes) [µg/mL] | Response of the lmo1652 regulatory element [2] | MIC (L. monocytogenes Wt) [µg/mL] | Sublethal concentration (highest antibiotics concentration that did not cause growth-rate inhibition) (E. faecalis) [µg/mL] | Sublethal concentrations of antibiotics used in this study (E. faecalis) [µg/mL] | MIC [3] [µg/mL] | MIC [4] [µg/mL] | MIC [5] [µg/mL] | Response of msrC promoter and termination-based regulator [6] | Sublethal concentration (highest antibiotics concentration that did not cause growth-rate inhibition) (B. subtilis) [µg/mL] | Sublethal concentrations of antibiotics used in this study (B. subtilis) [µg/mL] | Increase in sensitivity upon deletion of lmo0919 ([1]; Δlmo0919 versus wild type L. monocytogenes) [fold] | Activation of the lmo0919 5′UTR regulator (readthrough) [7] | Increase in ribosome occupancy over the 3aa uORF [8] [fold] | Increase in ribosome occupancy over the 3aa uORF [9] [fold] | Response of the EF2720 regulatory element [10] | Responsiveness of the lmo0919 regulator (lmo0919 regulator)
1 | CC[C@H]1OC(=O)[C@H](C)[C@@H](O[C@H]2C[C@@](C)(OC)[C@@H](O)[C@H](C)O2)[C@H](C)[C@@H](O[C@@H]2O[C@H](C)C[C@H](N(C)C)[C@H]2O)[C@](C)(O)C[C@@H](C)C(=O)[C@H](C)[C@@H](O)[C@]1(C)O [Erythromycin] | 0.0625 (≈ 0.0852 µM) | 0.03125 | 0.03125 | responds | 0.0312 (≈ 0.0426 µM) | 0.5 | 0.5 | 0.0312 (≈ 0.0426 µM) | 0.0625 (≈ 0.0852 µM) | 0.0625 (≈ 0.0852 µM) | increase both the transcription initiation rate and readthrough into the gene | 0.01562 | 0.01562 | – | – | – | – | – | –
2 | NC[C@H]1O[C@H](O[C@H]2[C@H](O)[C@@H](O[C@H]3O[C@H](CO)[C@@H](O)[C@H](N)[C@H]3O)[C@H](N)C[C@@H]2N)[C@H](O)[C@@H](O)[C@@H]1O [Kanamycin] | – | 0.5 | 0.5 | – | – | 16 | 16 | – | – | – | – | 0.5 | 0.5 | – | – | – | – | – | –
3 | O=C(N[C@H](CO)[C@H](O)c1ccc([N+](=O)[O-])cc1)C(Cl)Cl [Chloramphenicol] | – | 0.4 | 0.4 | responds | 2 (≈ 6.19 µM) | 0.4 | 0.4 | – | – | – | – | 0.2 | 0.2 | – | – | – | – | – | –
4 | CC1(C)S[C@@H]2[C@H](NC(=O)[C@H](N)c3ccccc3)C(=O)N2[C@H]1C(=O)O [Ampicillin] | – | 1 | 1 | – | – | 2 | 2 | – | – | – | – | 0.0625 | 0.0625 | – | – | – | – | – | –
5 | CCC[C@@H]1C[C@@H](C(=O)N[C@@H]([C@H]2O[C@H](SC)[C@H](O)[C@@H](O)[C@H]2O)[C@@H](C)O)N(C)C1 [Lincomycin] | 0.25 (≈ 0.615 µM) | 0.25 | 0.25 | responds | 1 (≈ 2.46 µM) | 2 | 2 | 8 (≈ 19.7 µM) | 0.25 (≈ 0.615 µM) | 0.25 (≈ 0.615 µM) | – | 0.5 | 0.5 | 4 | specific activation | ~5 | ~5 | respond | no longer responsive
6 | CC[C@H](C)[C@H](N)C1=N[C@H](C(=O)N[C@@H](CC(C)C)C(=O)N[C@H](CCC(=O)O)C(=O)N[C@H](C(=O)N[C@H]2CCCCNC(=O)[C@H](CC(N)=O)NC(=O)[C@@H](CC(=O)O)NC(=O)[C@H](Cc3cnc[nH]3)NC(=O)[C@@H](Cc3ccccc3)NC(=O)[C@H]([C@@H](C)CC)NC(=O)[C@@H](CCCN)NC2=O)[C@@H](C)CC)CS1 [Bacitracin] ({Ileψ(thiazoline)Cys}-L[dE]IK[dOrn]I[dF]H[dD]N; lactam 4-C) | – | 8 | 8 | – | – | 1 | 1 | – | – | – | – | 0.125 | 0.125 | – | – | – | – | – | –

From patent US20180237774A1, “METHODS OF SCREENING FOR RIBOSWITCHES AND ATTENUATORS” (priority 2015, published 2018)
